Reference: patent US20210379214A1, “Phospholipid-Free Small Unilamellar Vesicles (PFSUVS) for Drug Delivery” (The University of British Columbia, priority 2018, published 2021)
≈ marks a conversion by molar mass, not a printed value.

Legend:
EMT6 cells [1] = experiment: Cellular uptake in the presence of apolipoprotein; type: cell-based, murine; details: 4 hours, apolipoprotein 5, 20, 100 μg/ml
Method: EMT6 cells were seeded in 12 wells on cover slip over night to be confluent. […] After treatment, the cover slips were fixed with 10% and were then mounted on slide with a DAPI contained fluorescence shield. The slides were imaged under a confocal microscopy. Doxorubicin signal in those images were then quantified by Cellprofiler™.

[2] = tested on: EMT6 murine breast cancer cells; experiment: In vitro cytotoxicity (MTT assay); type: cell-based
Method: (§1) EMT6 (murine breast tumor) and the resistant variant, EMT6/AR1 cells overexpressing P-glycoprotein were purchased from the National Cancer Institute (Bethesda, Md.). EMT6 cells were cultured in DMEM medium with 10% FBS, penicillin (100 U/ml) and streptomycin (100 μg/ml) at 37° C. with 5% CO2.
EMT6 cells were seeded on a 96-well plate (1000 cells/well). Wells with medium only were used as blank. […] Two days later, 5 μl of MTT solution (5 mg/ml) was added to each well, followed by 4-h incubation. The medium was removed and 100 μl DMSO was added into each well, followed by incubation at room temperature for 15 min. Absorbance at 540 nm in each well was then measured by a plate reader. The cell viability was calculated as (Abs−Abblank)/(Ab100−Abblank)×100%, where Abs is the Absorbance540 nm for the experimental group, Abblank is the Absorbance540 nm of sample without cells and Ab100 is the Absorbance540 nm of sample without treatment.

EMT6 cells [3] = experiment: Cellular uptake of DOX by confocal laser scanning microscopy; type: cell-based, murine; details: for Mean Fluorescence Intensity: 5 μg DOX/ml
Method: as §1
Cellular uptake of DOX was imaged by confocal laser scanning microscopy (CLSM). EMT6 cells were seeded on a cover slip placed in a 24-well plate (1×10^5 cell/well) for 24 h prior to the study. […] The medium was removed and the cells were washed with PBS twice before fixation with 10% of formaldehyde at room temperature for 20 min. The cover slip was then washed for another 2 times with PBS and mount on a glass slide with fluorescence shield containing DAPI. The cells were imaged under a Zeiss™ confocal microscope (LSM 700™) and the image was analyzed using the CellProfiler™ (Version 3.0) software.

Q: How did the “effect of increasing concentrations of apolipoproteins on internalization” value (EMT6 cells [1]) turn out when COc1cccc2c1C(=O)c1c(O)c3c(c(O)c1C2=O)C[C@@](O)(C(=O)CO)C[C@@H]3O[C@H]1C[C@H](N)[C@H](O)[C@H](C)O1 [DOX, doxorubicin] was run?
A: no influence

Q: What about the “in vitro potency, fold more effective than PFSUVs-dox” value [2] of the same compound?
A: 4 fold

Q: And the IC50 ([2]; MTT, curve fitting)?
A: 0.025 µg/mL (≈ 0.046 µM)

Q: What about the “change of DOX cellular uptake in the presence of serum versus serum free” value (EMT6 cells [3]; EMT6 cells, 4 hr) of the same compound?
A: did not significantly change

Q: What about the “Mean Fluorescence Intensity” value (EMT6 cells [3]; EMT6 cells, 4 hr, 10% Serum) of the same compound?
A: 0.247 ± 0.021

Q: What about the “Mean Fluorescence Intensity” value (EMT6 cells [3]; EMT6 cells, 4 hr, Without Serum) of the same compound?
A: 0.258 ± 0.014

Q: What about the “increased cellular uptake relative to PFSUVs-DOX and PLD” value (EMT6 cells [3]; absence of serum) of the same compound?
A: ~15 fold
